Like-named read-outs stand apart in the source and are kept apart here.
How the values were obtained:
[1] = ChromlogD (lipophilicity); assay type: physicochemical; conditions: pH 7.4
Description: ChromlogD is a measure of lipophilicity of a compound (R. J. Young et al. Drug Discovery Today 2011, […]). Lipophilicity is a key physicochemical property that plays a crucial role in determining ADMET (absorption, distribution, metabolism, excretion, and toxicity) properties and the overall suitability of drug candidates.

hERG = hERG (Homo sapiens, UniProt Q12809); test: hERG Q-patch; assay type: cell-based; conditions: read-out: hERG Q-patch (pIC50) (converted)
Description: The human ether-a-go-go related gene (hERG) encodes the inward rectifying voltage gated potassium channel in the heart (IKr) that is involved in cardiac repolarisation. Inhibition of the hERG current causes QT interval prolongation resulting in potentially fatal ventricular tachyarrhythmia called Torsade de Pointes. A number of drugs have been withdrawn from late stage clinical trials due to these cardiotoxic effects, therefore it is important to identify inhibitors early in drug discovery (W. Haverkamp et al. Eur Heart J., 2000, 21(15), 1216). A low potency in this screen is advantageous for compound development.

ανβ6 = ανβ6 (Homo sapiens, UniProt P06756+P18564); test: Cell adhesion assay, αvβ6 integrin; assay type: cell-based
Experimental: The assays were performed as described in the literature (P. A. Procopiou, N. A. Anderson, J. Barrett, T. N. Barrett, M. H. J. Crawford, B. J. Fallon, A. P. Hancock, J. Le, S. Lemma, R. P. Marshall, J. Morrell, J. M. Pritchard, J. E. Rowedder, P. Saklatvala, R. J. Slack, S. L. Sollis, C. J. Suckling, L. R. Thorp, G. Vitulli, et al., J. Med. Chem. 2018, 61, 8417-8443; S. B. Ludbrook, S. T. Barry, C. J. Delves, C. M. T. Horgan, Biochem. J. 2003, 369, 311-318).

[2] = cell adhesion data, read-out: ανβ6 IC50

Chain of ανβ6 (P06756 31-889 limits assumed): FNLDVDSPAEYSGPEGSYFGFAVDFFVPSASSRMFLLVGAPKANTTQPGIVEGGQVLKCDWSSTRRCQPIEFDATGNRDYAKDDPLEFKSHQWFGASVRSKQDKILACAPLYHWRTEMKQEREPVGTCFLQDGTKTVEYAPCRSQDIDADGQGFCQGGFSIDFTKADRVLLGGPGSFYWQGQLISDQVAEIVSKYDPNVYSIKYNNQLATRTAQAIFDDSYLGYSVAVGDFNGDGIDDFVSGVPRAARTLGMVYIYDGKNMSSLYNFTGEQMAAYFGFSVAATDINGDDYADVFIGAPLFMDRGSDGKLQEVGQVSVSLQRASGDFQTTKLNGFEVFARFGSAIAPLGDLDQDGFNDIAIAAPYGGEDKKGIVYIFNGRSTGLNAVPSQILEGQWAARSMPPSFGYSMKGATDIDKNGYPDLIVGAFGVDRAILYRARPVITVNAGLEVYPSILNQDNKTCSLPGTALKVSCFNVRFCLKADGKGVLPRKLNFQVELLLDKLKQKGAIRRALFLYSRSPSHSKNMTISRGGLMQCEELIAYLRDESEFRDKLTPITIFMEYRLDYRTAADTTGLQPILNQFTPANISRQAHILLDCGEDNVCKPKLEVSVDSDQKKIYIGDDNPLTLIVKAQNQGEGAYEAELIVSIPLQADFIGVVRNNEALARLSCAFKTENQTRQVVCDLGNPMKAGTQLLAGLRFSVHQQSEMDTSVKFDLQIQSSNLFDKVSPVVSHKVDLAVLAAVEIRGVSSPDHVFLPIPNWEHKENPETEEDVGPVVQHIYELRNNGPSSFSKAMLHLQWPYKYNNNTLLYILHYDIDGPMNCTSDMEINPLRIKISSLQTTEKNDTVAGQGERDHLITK
Chain of ανβ6 (P06756 891-1048 limits assumed): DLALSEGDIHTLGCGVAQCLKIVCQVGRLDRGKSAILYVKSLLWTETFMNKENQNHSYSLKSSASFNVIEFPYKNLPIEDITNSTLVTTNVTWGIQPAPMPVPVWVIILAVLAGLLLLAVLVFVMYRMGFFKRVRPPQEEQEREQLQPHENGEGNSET
Chain of ανβ6 (P18564 22-788): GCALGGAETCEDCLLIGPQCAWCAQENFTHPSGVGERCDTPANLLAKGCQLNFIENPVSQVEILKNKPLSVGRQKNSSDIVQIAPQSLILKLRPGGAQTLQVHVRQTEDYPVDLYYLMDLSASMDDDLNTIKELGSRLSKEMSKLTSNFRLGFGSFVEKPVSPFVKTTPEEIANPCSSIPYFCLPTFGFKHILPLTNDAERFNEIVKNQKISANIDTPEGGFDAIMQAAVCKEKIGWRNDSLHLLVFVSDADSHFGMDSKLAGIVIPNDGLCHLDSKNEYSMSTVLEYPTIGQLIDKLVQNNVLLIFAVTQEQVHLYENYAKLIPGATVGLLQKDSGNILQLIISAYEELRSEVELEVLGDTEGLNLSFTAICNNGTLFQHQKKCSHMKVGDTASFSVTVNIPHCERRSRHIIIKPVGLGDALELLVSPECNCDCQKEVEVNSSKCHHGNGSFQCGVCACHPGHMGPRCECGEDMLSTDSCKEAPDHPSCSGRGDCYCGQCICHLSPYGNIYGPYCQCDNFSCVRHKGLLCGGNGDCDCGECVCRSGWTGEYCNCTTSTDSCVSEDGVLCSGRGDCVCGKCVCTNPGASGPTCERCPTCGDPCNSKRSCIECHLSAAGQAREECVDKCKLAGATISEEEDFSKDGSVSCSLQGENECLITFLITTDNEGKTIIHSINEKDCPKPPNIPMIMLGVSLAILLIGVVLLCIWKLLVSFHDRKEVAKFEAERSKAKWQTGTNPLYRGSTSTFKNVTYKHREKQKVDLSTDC
Chain of hERG (Q12809 whole entry): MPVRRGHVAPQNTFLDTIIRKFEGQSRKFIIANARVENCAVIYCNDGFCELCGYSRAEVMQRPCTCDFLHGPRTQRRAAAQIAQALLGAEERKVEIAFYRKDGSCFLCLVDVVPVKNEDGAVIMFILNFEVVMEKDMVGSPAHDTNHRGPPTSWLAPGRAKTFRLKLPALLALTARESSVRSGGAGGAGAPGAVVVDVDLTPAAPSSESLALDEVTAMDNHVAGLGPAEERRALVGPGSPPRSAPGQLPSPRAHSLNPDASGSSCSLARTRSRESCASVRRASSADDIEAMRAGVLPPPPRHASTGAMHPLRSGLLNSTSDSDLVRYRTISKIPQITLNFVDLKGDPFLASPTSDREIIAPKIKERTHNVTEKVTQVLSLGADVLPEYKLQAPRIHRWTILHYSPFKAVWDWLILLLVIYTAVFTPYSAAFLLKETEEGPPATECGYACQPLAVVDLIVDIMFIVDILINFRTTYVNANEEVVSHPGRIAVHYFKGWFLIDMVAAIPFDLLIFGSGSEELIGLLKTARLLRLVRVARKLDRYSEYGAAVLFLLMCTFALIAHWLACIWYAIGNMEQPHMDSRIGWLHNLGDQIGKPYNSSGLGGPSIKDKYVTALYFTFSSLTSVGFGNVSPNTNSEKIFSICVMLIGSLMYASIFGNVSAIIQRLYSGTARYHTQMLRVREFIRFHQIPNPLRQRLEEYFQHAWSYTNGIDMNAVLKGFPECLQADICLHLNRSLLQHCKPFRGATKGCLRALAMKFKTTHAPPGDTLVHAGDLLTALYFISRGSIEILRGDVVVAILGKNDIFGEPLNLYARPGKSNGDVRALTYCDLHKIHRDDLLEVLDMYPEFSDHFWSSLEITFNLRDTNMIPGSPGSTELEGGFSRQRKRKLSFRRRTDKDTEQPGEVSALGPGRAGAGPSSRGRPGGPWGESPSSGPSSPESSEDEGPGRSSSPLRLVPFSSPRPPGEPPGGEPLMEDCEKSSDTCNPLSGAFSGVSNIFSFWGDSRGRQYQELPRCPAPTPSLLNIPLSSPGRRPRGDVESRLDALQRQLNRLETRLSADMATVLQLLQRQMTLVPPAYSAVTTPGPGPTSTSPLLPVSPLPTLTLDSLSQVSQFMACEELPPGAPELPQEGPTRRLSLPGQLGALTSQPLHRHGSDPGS

Row | IC50 (ανβ6; [2]) [µM] | SMILES | also measured
1 | < 0.25 | O=C(CCCCc1ccc2c(n1)NCCC2)NC[C@H](NC(=O)C1CN(S(=O)(=O)c2cccc(C(F)F)c2)C1)C(=O)O [Example 29, (S)-2-(1-(3-(Difluoromethyl)benzenesulfonyl)azetidine-3-carboxamido)-3-(5-(5,6,7,8-tetrahydro-1,8-naphthyridin-2-yl)pentanamido)propanoic acid] | –
2 | < 0.25 | O=C(CCCCc1ccc2c(n1)NCCC2)NC[C@H](NC(=O)C1CN(S(=O)(=O)c2cccc(C3CC3)c2)C1)C(=O)O [Example 30, (S)-2-(1-(3-Cyclopropylbenzenesulfonyl)azetidine-3-carboxamido)-3-(5-(5,6,7,8-tetrahydro-1,8-naphthyridin-2-yl)pentanamido)propanoic acid] | –
3 | < 0.25 | COc1ccc(S(=O)(=O)N2CC(C(=O)N[C@@H](CNC(=O)CCCCc3ccc4c(n3)NCCC4)C(=O)O)C2)cc1OC [Example 32, (S)-2-(1-(3,4-Dimethoxybenzenesulfonyl)azetidine-3-carboxamido)-3-(5-(5,6,7,8-tetrahydro-1,8-naphthyridin-2-yl)pentanamido)propanoic acid] | –
4 | < 0.25 | CN(C)CCOc1cccc(S(=O)(=O)N2CC(C(=O)N[C@@H](CNC(=O)CCCCc3ccc4c(n3)NCCC4)C(=O)O)C2)c1 [Example 35] | –
5 | < 0.25 | Cc1cccc(S(=O)(=O)N2CC(C(=O)N[C@@H](CCN(C)CCCCc3ccc4c(n3)NCCC4)C(=O)O)C2)c1 [Example 37, (S)-4-(Methyl(4-(5,6,7,8-tetrahydro-1,8-naphthyridin-2-yl)butyl)amino)-2-(1-(3-methylbenzenesulfonyl)azetidine-3-carboxamido)butanoic acid] | –
6 | < 0.25 | CN(CCCCc1ccc2c(n1)NCCC2)CC[C@H](NC(=O)C1CN(S(=O)(=O)c2ccccc2)C1)C(=O)O [Example 38, (S)-4-(Methyl(4-(5,6,7,8-tetrahydro-1,8-naphthyridin-2-yl)butyl)amino)-2-(1-(phenylsulfonyl)azetidine-3-carboxamido)butanoic acid] | –
7 | < 0.25 | Cc1ccc(S(=O)(=O)N2CC(C(=O)N[C@@H](CCN(C)CCCCc3ccc4c(n3)NCCC4)C(=O)O)C2)cc1 [Example 40, (S)-4-(Methyl(4-(5,6,7,8-tetrahydro-1,8-naphthyridin-2-yl)butyl)amino)-2-(4-methylbenzenesulfonylazetidine-3-carboxamido)butanoic acid] | –

Continued, compound first:

Row | SMILES | IC50 (ανβ6; [2]) [µM] | also measured
8 | Cc1cccc(S(=O)(=O)N2CC(C(=O)N[C@@H](CNC(=O)CCCCc3ccc4c(n3)NCCC4)C(=O)O)C2)c1 [Example 6A] | < 0.25 | chromatographic logD [1]: 2.27; IC50 (hERG): > 31.6 µM; IC50 (ανβ6; comparison table, Example 6A, read-out: αvβ6 (pIC50) (converted)): 0.00501 µM
9 | O=C(CCCCc1ccc2c(n1)NCCC2)NC[C@H](NC(=O)C1CN(S(=O)(=O)c2ccc3c(c2)CCC3)C1)C(=O)O [Example 31, (S)-2-(1-((2,3-Dihydro-1H-inden-5-yl)sulfonyl)azetidine-3-carboxamido)-3-(5-(5,6,7,8-tetrahydro-1,8-naphthyridin-2-yl)pentanamido)propanoic acid] | < 0.25 | –
10 | O=C(CCCCc1ccc2c(n1)NCCC2)NC[C@H](NC(=O)C1CN(S(=O)(=O)c2cccc(C3=CCOCC3)c2)C1)C(=O)O [Example 33] | < 0.25 | –
11 | O=C(CCCCc1ccc2c(n1)NCCC2)NC[C@H](NC(=O)C1CN(S(=O)(=O)c2cccc(N3CCNCC3)c2)C1)C(=O)O [Example 34, (S)-2-(1-(3-(Piperazin-1-yl)benzenesulfonyl)azetidine-3-carboxamido)-3-(5-(5,6,7,8-tetrahydro-1,8-naphthyridin-2-yl)pentanamido)propanoic acid] | < 0.25 | –
12 | Cc1cccc(S(=O)(=O)N2CC(C(=O)N[C@@H](CC(=O)NCCCCc3ccc4c(n3)NCCC4)C(=O)O)C2)c1 [Example 36, N4-(4-(5,6,7,8-Tetrahydro-1,8-naphthyridin-2-yl)butyl)-N2-(1-(3-methylbenzenesulfonyl)azetidine-3-carbonyl)-L-asparagine] | < 0.25 | –
13 | CN(CCCCc1ccc2c(n1)NCCC2)CC[C@H](NC(=O)C1CN(S(=O)(=O)c2cccc(Cl)c2)C1)C(=O)O [Example 39, (S)-2-(1-((3-chlorophenyl)sulfonyl)azetidine-3-carboxamido)-4-(methyl(4-(5,6,7,8-tetrahydro-1,8-naphthyridin-2-yl)butyl)amino)butanoic acid] | < 0.25 | –
